SMILES strings stand for the structures. Activity calls are given as the source filed them.

Assay [1] is described as follows: toxicity toward HepG2 liver cells – cell-based, plate reader, cherry-pick, antagonist series, cytotoxicity control, dose response (AID 743416). In kind it is functional.
Assay [2] can be described thus: A549 cell cytotoxicity, dose response, cytotoxicity control, plate reader, cherry-pick, antagonist series (AID 743412). In kind it is functional, cell-based.
Assay [3] can be described thus: blockade of melanocortin 4 receptor signaling – cell-based, plate reader, cherry pick, counter-screen for LGR2 antagonist project, dose response (AID 743444).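 Further: transfected HEK 293 cells stimulated with alpha-MSH peptide; potency of inhibitors of the alpha-MSH evoked signal.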 It is filed as functional.
Assay [4] is described as follows: inhibition of bursicon-driven LGR2 cAMP signaling – cell-based, HEK293, CRE-luciferase reporter, cherry pick, dose response (AID 743342). In kind it is functional.
Assay [5] can be described thus: viability loss in MITF-independent A375 cells – cell-based, CellTiter-Glo luminescence, dry powder, set 2, counter-screen for MITF inhibitor project, dose response (AID 624489).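 Further: actives are compounds lowering A375 viability meaning general cytotoxicity.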 The note with it: A-375. It is filed as functional.
The nature of assay [6]: cytotoxicity in MITF-independent A375 cells – cell-based, CellTiter-Glo luminescence, dry powder, set 4, counter-screen for MITF inhibitor project, dose response (AID 624364).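 Further: A375 melanoma cells are MITF independent so this is a counter screen.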 In kind it is functional. The note with it: A-375.
Another assay has as its target NS3 (Hepatitis C virus, UniProt A3EZJ3). In words: NS3h DNA-binding inhibition IC50 – biochemical, fluorescence polarization, ChemBridge library, dose response (AID 743264).
For another assay, the target named is Fatty acid synthase (Homo sapiens, UniProt P49327). In words: inhibition of human FAS-TE enzyme activity – biochemical, endpoint fluorescence intensity, powder samples, SAR follow-up (AID 652164). In kind it is functional.
A short description of assay [7]: Late stage assay provider results from the probe development effort to identify inhibitors of the Plasmodium falciparum M18 Aspartyl Aminopeptidase (M18AAP): radiolabel-based cell-based dose response assay to identify compounds that inhibit P. falciparum growth in RBCs, Set 2.. It is filed as functional.
The target in assay [8] is RNA-editing ligase 1, mitochondrial (Trypanosoma brucei brucei, UniProt P86926). In words: inhibition of trypanosome RNA editing ligase – biochemical, fluorescence, Trypanosoma brucei, dose response (AID 1117295). In kind it is functional.
Assay [9] is described as follows: toxicity to A549 lung cells – cell-based, plate reader, dry powder, set 6, cytotoxicity control, dose response (AID 743312). It is filed as functional.
Assay [10] is described as follows: MITF Orthogonal Assay: SK-MEL-5 CTG Assay Measured in Cell-Based System Using Plate Reader - 2084-02_Inhibitor_Dose_DryPowder_Activity_Set7. It is filed as functional.
A short description of assay [11]: MITF: Counter assay: A375 proliferation Measured in Cell-Based System Using Plate Reader - 2084-03_Inhibitor_Dose_DryPowder_Activity_Set8. It is filed as functional. Conditions: A-375.
The nature of assay [12]: inhibitors of TRPM1-promoter reporter in SK-MEL-5 – cell-based, luciferase, dry powder, set 8, MITF inhibitor project, dose response (AID 624430). It is filed as functional.

Chain of NS3 (A3EZJ3 whole entry): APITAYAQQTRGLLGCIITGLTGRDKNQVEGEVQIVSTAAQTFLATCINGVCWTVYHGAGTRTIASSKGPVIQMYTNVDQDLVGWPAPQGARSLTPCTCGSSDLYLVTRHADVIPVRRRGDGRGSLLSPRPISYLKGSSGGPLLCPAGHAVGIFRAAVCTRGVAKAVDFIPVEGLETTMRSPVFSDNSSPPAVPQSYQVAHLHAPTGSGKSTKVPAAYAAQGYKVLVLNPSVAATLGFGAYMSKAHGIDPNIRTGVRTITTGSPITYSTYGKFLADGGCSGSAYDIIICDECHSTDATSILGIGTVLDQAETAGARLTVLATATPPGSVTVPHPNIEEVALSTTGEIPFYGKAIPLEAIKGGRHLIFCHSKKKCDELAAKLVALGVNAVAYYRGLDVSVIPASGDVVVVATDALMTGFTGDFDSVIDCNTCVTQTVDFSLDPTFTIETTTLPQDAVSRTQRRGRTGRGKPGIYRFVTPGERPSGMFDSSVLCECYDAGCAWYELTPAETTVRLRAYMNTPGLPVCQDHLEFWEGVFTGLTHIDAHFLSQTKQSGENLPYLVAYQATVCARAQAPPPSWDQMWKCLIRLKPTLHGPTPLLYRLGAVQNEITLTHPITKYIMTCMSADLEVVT
Chain of RNA-editing ligase 1, mitochondrial (P86926 whole entry): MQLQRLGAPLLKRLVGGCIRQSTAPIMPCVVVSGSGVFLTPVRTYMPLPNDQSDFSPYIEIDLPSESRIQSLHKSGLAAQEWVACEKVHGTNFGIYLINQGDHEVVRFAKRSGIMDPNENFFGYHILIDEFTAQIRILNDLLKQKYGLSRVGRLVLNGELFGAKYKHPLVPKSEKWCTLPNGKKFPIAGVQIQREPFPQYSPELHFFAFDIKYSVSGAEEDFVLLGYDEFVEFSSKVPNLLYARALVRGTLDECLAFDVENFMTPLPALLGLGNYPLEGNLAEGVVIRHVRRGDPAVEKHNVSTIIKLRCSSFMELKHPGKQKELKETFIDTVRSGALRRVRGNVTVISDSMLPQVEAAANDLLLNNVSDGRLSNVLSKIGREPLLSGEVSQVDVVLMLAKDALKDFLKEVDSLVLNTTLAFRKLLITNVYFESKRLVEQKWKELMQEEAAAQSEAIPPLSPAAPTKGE
Chain of Fatty acid synthase (P49327 whole entry): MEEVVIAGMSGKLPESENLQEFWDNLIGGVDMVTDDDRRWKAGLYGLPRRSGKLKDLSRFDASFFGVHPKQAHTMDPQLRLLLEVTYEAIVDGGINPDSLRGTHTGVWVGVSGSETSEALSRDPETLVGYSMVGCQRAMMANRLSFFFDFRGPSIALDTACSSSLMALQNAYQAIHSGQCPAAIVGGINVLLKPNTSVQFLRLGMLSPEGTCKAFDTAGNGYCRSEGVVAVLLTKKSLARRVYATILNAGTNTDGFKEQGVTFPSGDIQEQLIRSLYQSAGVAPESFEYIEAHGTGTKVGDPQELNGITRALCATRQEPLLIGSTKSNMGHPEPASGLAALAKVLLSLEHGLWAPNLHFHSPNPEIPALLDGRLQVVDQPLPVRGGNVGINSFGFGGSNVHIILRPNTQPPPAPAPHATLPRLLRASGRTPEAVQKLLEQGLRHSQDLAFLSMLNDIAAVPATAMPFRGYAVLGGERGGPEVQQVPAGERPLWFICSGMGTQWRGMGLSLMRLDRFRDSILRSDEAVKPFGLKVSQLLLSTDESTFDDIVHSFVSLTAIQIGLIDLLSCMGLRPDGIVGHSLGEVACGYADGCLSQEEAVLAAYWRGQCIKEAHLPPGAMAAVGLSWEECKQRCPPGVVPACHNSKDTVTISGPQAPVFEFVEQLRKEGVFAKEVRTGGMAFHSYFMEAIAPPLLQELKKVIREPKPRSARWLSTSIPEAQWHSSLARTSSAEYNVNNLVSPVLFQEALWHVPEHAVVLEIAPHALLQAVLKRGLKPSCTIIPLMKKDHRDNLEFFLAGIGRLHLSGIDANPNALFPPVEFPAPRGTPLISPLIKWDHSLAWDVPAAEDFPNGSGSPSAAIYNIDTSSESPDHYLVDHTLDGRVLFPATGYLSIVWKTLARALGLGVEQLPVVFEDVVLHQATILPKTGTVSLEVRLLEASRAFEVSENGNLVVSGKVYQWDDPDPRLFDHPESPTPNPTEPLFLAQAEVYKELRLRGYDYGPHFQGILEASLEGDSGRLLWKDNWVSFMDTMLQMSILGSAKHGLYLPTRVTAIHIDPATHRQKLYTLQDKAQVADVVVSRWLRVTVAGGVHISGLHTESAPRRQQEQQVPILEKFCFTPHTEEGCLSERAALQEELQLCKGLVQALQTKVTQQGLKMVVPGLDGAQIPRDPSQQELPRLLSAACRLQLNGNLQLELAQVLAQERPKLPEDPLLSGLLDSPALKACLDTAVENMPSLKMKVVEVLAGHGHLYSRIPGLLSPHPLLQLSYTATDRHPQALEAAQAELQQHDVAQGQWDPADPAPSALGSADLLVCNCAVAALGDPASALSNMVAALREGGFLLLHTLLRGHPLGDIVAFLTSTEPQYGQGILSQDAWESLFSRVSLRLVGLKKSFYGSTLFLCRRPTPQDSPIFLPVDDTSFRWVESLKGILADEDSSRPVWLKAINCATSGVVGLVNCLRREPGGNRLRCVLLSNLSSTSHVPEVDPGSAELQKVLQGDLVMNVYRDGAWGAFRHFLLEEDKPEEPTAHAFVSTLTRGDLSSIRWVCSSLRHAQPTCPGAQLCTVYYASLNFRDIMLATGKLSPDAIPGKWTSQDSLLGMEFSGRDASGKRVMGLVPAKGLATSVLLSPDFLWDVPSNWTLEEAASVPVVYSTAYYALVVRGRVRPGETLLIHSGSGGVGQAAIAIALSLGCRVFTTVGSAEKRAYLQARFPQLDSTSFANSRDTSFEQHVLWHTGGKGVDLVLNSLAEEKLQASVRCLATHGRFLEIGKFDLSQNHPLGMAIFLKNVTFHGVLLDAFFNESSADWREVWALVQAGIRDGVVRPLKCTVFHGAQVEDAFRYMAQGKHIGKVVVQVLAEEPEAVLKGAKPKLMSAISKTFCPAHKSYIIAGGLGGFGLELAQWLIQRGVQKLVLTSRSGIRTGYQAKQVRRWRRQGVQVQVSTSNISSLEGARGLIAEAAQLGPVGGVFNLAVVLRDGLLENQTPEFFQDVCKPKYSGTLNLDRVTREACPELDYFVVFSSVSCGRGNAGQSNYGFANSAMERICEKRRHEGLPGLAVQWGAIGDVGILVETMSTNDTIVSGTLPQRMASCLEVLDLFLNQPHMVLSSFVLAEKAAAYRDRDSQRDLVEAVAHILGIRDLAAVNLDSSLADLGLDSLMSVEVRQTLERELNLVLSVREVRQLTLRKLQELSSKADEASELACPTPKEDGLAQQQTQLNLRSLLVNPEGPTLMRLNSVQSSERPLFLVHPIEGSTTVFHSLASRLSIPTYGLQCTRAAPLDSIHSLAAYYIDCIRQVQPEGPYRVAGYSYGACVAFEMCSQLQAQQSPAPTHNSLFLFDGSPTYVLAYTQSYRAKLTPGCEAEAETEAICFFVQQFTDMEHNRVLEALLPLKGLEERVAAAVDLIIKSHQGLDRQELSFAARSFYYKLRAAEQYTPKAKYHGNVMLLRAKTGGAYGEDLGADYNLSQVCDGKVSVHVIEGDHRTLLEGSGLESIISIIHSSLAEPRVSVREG

Take `C[C@H](CO)N1C[C@H](C)[C@H](CN(C)C(=O)Nc2ccc(C(F)(F)F)cc2)OCCCC[C@H](C)Oc2ccc(NC(=O)NC3CCCCC3)cc2C1=O`: the AC50 in assay [1] was > 52 µM (inactive); in assay [2] it was > 52 µM (inactive); in assay [3], 0.898 µM (active); in [4] it was 8.74 µM (active).
With `CCN1CCN(C2=C(NC(=O)c3ccc(Br)cc3)C(=O)c3ccccc3C2=O)CC1`, the values for the AC50 in [5] and in assay [6] were 6.71 µM (active) and 15.2 µM (active), respectively.
With `CC1=C(C#N)c2nc(N)c(C#N)c(C)c2C1=Cc1ccc(-c2cccc(C(=O)O)c2)o1`, at NS3, the IC50 was 143 µM (active).
With `CCCCC(=O)Nc1nc(-c2cccc(S(=O)(=O)N3CCOCC3)c2)cs1`, on Fatty acid synthase, the IC50 is 20.2 µM (inactive).
As for `Oc1ccc(C2CCN(c3ccnc4ccccc34)CC2)cc1O`, the IC50 in [7] is 1.3 µM (active).
With `COC(=O)C1=C(C)N(Cc2ccc(C(F)(F)F)cc2)C(NCc2ccccc2C(F)(F)F)=NC1c1cccc(Cl)c1` (centres undefined), the IC50 in [8] was > 96.6 µM (inactive).
As to `Cc1ccc(C(C)C)c(OCCn2c(S)nc3ccccc32)c1`, in [9], the AC50 was 22 µM (active).
For the molecule `O=C1C(Nc2cccc(Br)c2)=C(N2CCCCC2)C(=O)c2ccccc21`, the AC50 in [10] was 19.7 µM (active); in [11], > 70 µM (inactive); in [12], 9.81 µM (active).

The record behind these values is ChEMBL document CHEMBL1201862, “PubChem BioAssay data set” (2004).
